# From patent publication US6562868B1, “Method for treatment of female sexual dysfunction” (Synphora AB, priority 1999, dated 2003)
# Key:
# cat eyes = test: Irritant effect in cat eyes (behavioural model, degree of eyelid closure); format: in vivo; conditions: for irritant effect in words, compared to PGE1-isopropyl ester: even at doses 1000 times higher than PGE1-isopropyl ester
# Method: (§1) The effect of the test compounds on cavernous tissue was tested using penile tissue. As mentioned previously both in the male and female the genitals contain cavernous tissue, and the penile tissue can therefore be used as model for genital cavernous tissue. The general blood vessel relaxing effect of the test compounds was studied by investigating the immediate blood pressure decrease in rats upon intravenous infusion of the test compounds. The acute drop in blood pressure reflects a peripheral vasodilation in the animals brought about by the test compounds. The general irritative effect of the test compounds was studied in the cat eye which is very sensitive to noxious stimuli.
# The irritant effect of the prostaglandin analogues was tested using a behavioural model in cats. In this model the irritant effect on the eye is studied by registering the degree of eyelid closure and the behaviour of the animals. Compounds that cause discomfort and pain in the eye cause the animals to close their eyes. The analogues were applied as carboxylic acid esters, to enhance bioavailability, topically on the eye as a single dose at different dose levels. The animals were then followed for several hours at regular intervals. Each compound and dose was tested on a group of 3-6 cats. At least 3 days elapsed between two consecutive tests on the same animals. An arbitrary scale from 0 (absence of irritation) to 3 (marked irritation), with half steps was used.
# [1] = system: rabbit penile blood vessels; test: Vasorelaxation of isolated rabbit penile blood vessel ring segments in a small vessel myograph, normalized to papaverine; format: cell-based; conditions: FIG. 2; precontracted with 10^−6 M norepinephrine
# Method: To study the effect of the PGE1 and […]-OH-PGE2 on the penile vasculature, penile blood vessels of the rabbit were isolated and mounted as ring segments in a small vessel myograph (J.P. Trading, Denmark) containing a solution consisting of NaCl 119 mM, KCl 4.7 mM, CaCl2 1.5 mM, MgSO4 1.17 mM, KH2PO4 1.18 mM, NaHCO3 25 mM, EDTA 0.027 mM and glucose 11 mM. The solution also contained indomethacin at a final concentration of about 3 μM, and was continuously bubbled by 95% O2 and 5%CO2. The temperature was kept constant at 37° C. The vessels were stretched and then precontracted using 10^-6 M norepinephrine, and the vasorelaxant effect of the prostaglandin analogues was normalized by comparing it to that of papaverine in the same preparation. Cumulative concentration-response curves were constructed for the analogues.
# [2] = system: human corpus cavernosum tissue; test: Relaxation of isolated human penile cavernous tissue precontracted with norepinephrine, normalized to carbachol; format: cell-based; conditions: FIG. 1, parallel curves; about half to one third as potent as PGE1
# Method: as §1
# Human penile cavernous tissue was obtained fresh from surgery, and representative tissue samples were mounted in smooth muscle tissue baths containing a modified Kreb's solution consisting of NaCl 119 mM, KCl 4.6 mM, MgCl2 1.2 mM, NaH2PO4 1.2 mM, NaHCO3 15 mM, CaCl2 1.5 mM and glucose 11 mM. The solution also contained indomethacin at a final concentration of about 3 μM. The solution was continuously bubbled by 95% O2 and 5% CO2, and the temperature was kept at 37° C. […]
# rabbit eye = conditions: rabbits; Hall and Jaitly, 1977; cited from earlier work
# cat eye = test: Intraocular pressure in cats by pneumatonometry after topical administration; format: in vivo; conditions: 1 hour after topical administration; 3 cats, local anaesthesia; before treatment 16.3+/−0.9 mmHg; control eyes 15.7+/−0.7
# Method: To confirm that 19R-OH-PGE2-methyl ester, which is more hydrophilic than PGE1-isopropyl ester, indeed penetrates into the cornea and the intraocular parts of the eye we measured the intraocular pressure in 3 cats under local anaesthesia before and 1 hour after topical administration of the prostaglandin to the eye. The intraocular pressure was measured by pneumatonometry. One eye was treated with the test compound and the other eye received the vehicle only. In the eyes treated topically with 19R-OH-PGE2-methyl ester the intraocular pressure decreased from 16.3+/−0.9 mmHg to 12.7+/−1.2 mmHg, whereas it was 16.3+/−0.9 mmHg and 15.7+/−0.7 mmHg in the control eyes at the same time points. It is well known that prostaglandins reduce the intraocular pressure in cats (Bito et al., 1989), and it can thus be taken as an evidence that the drug has penetrated into the eye. […] Thus the absence of pain and irritation after administration of 18RS-OH-PGE2, 19R-OH-PGE2 and 20-OH-PGE2 cannot be explained en the basis of increased hydrophilicity and poor bioavailability.
smiles,measurement,setting,value
"CCC(O)CC[C@H](O)/C=C/[C@H]1[C@H](O)CC(=O)[C@@H]1C/C=C\CCCC(=O)OC (stereo partly drawn) [18RS-OH—PGE2-me, 18RS-hydroxy PGE2 methyl ester]","irritant effect in words, compared to PGE1-isopropyl ester",cat eyes,no or markedly reduced irritant effect
"C[C@@H](O)CCC[C@H](O)/C=C/[C@H]1[C@H](O)CC(=O)[C@@H]1C/C=C\CCCC(=O)O [19R-OH-PGE2, 19R-hydroxy-prostaglandin E2]","vasodilatory effect (efficacy and potency, PGE1 versus 19R-OH-PGE2)",[1],the same efficacy in inducing vasodilatation and were also about equipotent
same,factor by which concentration-response curve differs from PGE1 (less potent),[2],2-3
same,irritation by swelling of the ocular structures,cat eyes; cat eye,no evidence of such irritation
same,irritant effect on ocular structures,rabbit eye,inducing swelling of the ocular structures
same,lid closure,rabbit eye,does not cause lid closure
"COC(=O)CCC/C=C\C[C@H]1C(=O)C[C@@H](O)[C@@H]1/C=C/[C@@H](O)CCC[C@@H](C)O [19R-OH—PGE2-me, 19-R-hydroxy-prostaglandin E2-methyl ester]",intraocular pressure,cat eye,12.7+/−1.2 mmHg
same,"irritant effect in words, compared to PGE1-isopropyl ester",cat eyes,no or markedly reduced irritant effect
"CCCCC[C@H](O)/C=C/[C@H]1[C@H](O)CC(=O)[C@@H]1CCCCCCC(=O)O [PGE1, reference compound]","vasodilatory effect (efficacy and potency, PGE1 versus 19R-OH-PGE2)",[1],the same efficacy in inducing vasodilatation and were also about equipotent
